# In US20060241098A1, “Pesticidal n-substituted azacyclic derivatives” (priority 2003, published 2006):
# Read-outs that look alike come from different tables or passages of the source.
# Experiments:
# [1] = system: cotton aphid (Aphis gossypii); test: Translaminar insecticidal activity test on cotton leaves, N-oxides versus free amines; type: in vivo; details: for mortality at 500 ppm: Aphis gossypii
# Experimental: Certain N-Substituted azacyclic compounds where the N-substituent is O^− (the N-oxides) of the present invention were tested to determine their translaminar characteristics as evidenced by activity against cotton aphid (Aphis gossypii) in comparison with their corresponding free amine derivatives. These tests were conducted in the following manner: For each compound tested, one cotton plant with two mature leaves was selected. On the top of one of the leaves a sticky material used for trapping insects was applied using a stamp of about 2.5 centimeters in diameter. The process was repeated on the bottom of the second leaf of the cotton plant. A solution of 500 ppm of test compound (dissolved in 1:1 acetone and water containing a small amount of surfactant) was then applied to the entire side of each leaf opposite the side stamped with the sticky material using a saturated cotton swab. Upon completion of the application of the test compounds, the cotton plants were maintained in a growth chamber for about 18 hours. After this time the leaves of the test plant were infested with a known number of cotton aphids by placing an infested leaf cutting from the cotton aphid colony directly over the sticky material on each leaf. The leaf cutting on the bottom of a leaf of the test plant was secured to the leaf with a pin. The treated and infested cotton plants were then maintained in a chamber, during which time they were evaluated at daily intervals of from one to up to eight days. A test compound was termed active (A) if the top and bottom of the leaves of the test plant were mostly free of aphids (80% to 100%) when compared to untreated controls. […]
# [2] = system: cotton aphid; test: Residual insecticidal activity test on sprayed cotton plants; type: in vivo, Aphis gossypii; details: 72 h exposure; for mortality at 224 g/ha / mortality at 560 g/ha / mortality at 1120 g/ha: Aphis gossypii; for Percent Mortality 5 DAT (greenhouse): 5 day residual
# Experimental: Certain N-Substituted azacyclic compounds where the N-substituent is O^− (the N-oxides) of the present invention were also tested to determine their residual insecticidal activity. These tests were conducted in the following manner:
# For each rate of application of test compound, a 15 mL aliquot of test solution was prepared. Sufficient test compound was dissolved in 1.5 mL of acetone to provide an application rate as high as 1200 grams/Ha. Each solution was then added to 13.5 mL of water containing 300 ppm of a surfactant. There were four replicates for each rate of application of test compound, and all tests included a known chemical standard as well as a standard of water and untreated checks.
# A maximum of 14 appropriately sized cotton plants for each rate of application and replicate were arranged in a 28 pot plastic flat and sprayed with the 15 mL sample of test compound using an traveling boom sprayer equipped with a cone spray tip at a rate of 30 gallons/acre under a pressure of 40-44 psi. The untreated checks were sprayed first, followed by the test compounds and standards, all in order of lowest to highest rates of application. Once the spraying was complete, the test plants were allowed to air-dry on the conveyor on which they were sprayed.
# In the test to determine residual activity (0 Day Residual) one set of dry plants was infested with leaf cuttings covered with about 25 cotton aphids taken from cotton plants in an aphid colony. The cotton plants were then maintained in a greenhouse or in an atmosphere of simulated direct sunlight for 72 hours after which time cotton aphid mortality was determined.
# A second set of dry test plants treated with test compounds were maintained for three days (3 Day Residual), then infested with cotton aphid. The infested plants were maintained and evaluated for cotton aphid mortality after 72 hours as set forth above. Other residual activity periods are optionally evaluated also, for example a 5 day residual.
# At the end of the 72 hour exposure period the numbers of live insects were counted a percent mortality of aphids was calculated based on the number of live insects present and the number that were infested onto the plants.
# [3] = 24 h, read-out: Percent Mortality at Day After treatment (DAT), 1 DAT
# [4] = 72 h, read-out: Percent Mortality at Day After treatment (DAT), 3 DAT
# [5] = 96 h, read-out: Percent Mortality at Day After treatment (DAT), 4 DAT
# [6] = 120 h, read-out: Percent Mortality at Day After treatment (DAT), 5 DAT
# [7] = 144 h, read-out: Percent Mortality at Day After treatment (DAT), 6 DAT
# [8] = 168 h, read-out: Percent Mortality at Day After treatment (DAT), 7 DAT
# [9] = 500 ppm applied to opposite leaf side, 1 DAT
# [10] = 500 ppm applied to opposite leaf side, 2 DAT
# [11] = 500 ppm applied to opposite leaf side, 3 DAT
# [12] = 500 ppm applied to opposite leaf side, 6 DAT
# [13] = Table 4, 56 g/ha, 3 day residual, simulated sunlight environment
# [14] = Table 4, 56 g/ha, greenhouse environment
# [15] = Table 4, 56 g/ha, infested 0 days after treatment
# [16] = Table 4, 112 g/ha, 3 day residual, simulated sunlight environment
# [17] = Table 4, 112 g/ha, greenhouse environment
# [18] = Table 4, 112 g/ha, infested 0 days after treatment
# [19] = Table 4, 224 g/ha, 3 day residual, simulated sunlight environment
# [20] = Table 4, 224 g/ha, greenhouse environment
# [21] = Table 4, 224 g/ha, infested 0 days after treatment
# [22] = 500 ppm applied to opposite leaf side
compound,measurement,setting,value
"Cc1nnn(C2C[N+]3([O-])CCC2CC3)n1 (stereo not shown) [Compound 407, N-Oxide of 5-methyl-2-quinuclidin-3-yl-1,2,3,4-tetraazole]",mortality at 500 ppm,[1]; [3],< 50%
same,mortality at 500 ppm,[1]; [4],50 to 80%
same,mortality at 500 ppm,[1]; [5],50 to 80%
same,mortality at 500 ppm,[1]; [6],50 to 80%
same,mortality at 500 ppm,[1]; [7],50 to 80%
"Cc1noc(C2CN3CCC2C3)n1 (stereo not shown) [Compound B, 5-(4-azabicyclo[2.2.1]hept-2-yl)-3-methyl-1,2,4-oxadiazole, reference compound]",mortality at 500 ppm,[1]; [3],< 50%
same,mortality at 500 ppm,"[1]; 48 h, read-out: Percent Mortality at Day After treatment (DAT), 2 DAT",< 50%
same,mortality at 500 ppm,[1]; [4],< 50%
same,mortality at 500 ppm,[1]; [7],< 50%
same,mortality at 500 ppm,[1]; [8],< 50%
same,mortality at 500 ppm,"[1]; 168 h, read-out: mortality throughout the seven-day test period",< 50%
same,mortality at 224 g/ha,"[2]; Table 3, 224 g/ha, 3 day residual, greenhouse environment, read-out: Percent Mortality 3 DAT (greenhouse)",41%
same,mortality at 224 g/ha,"[2]; Table 3, 224 g/ha, 3 day residual, simulated sunlight environment, read-out: Percent Mortality 3 DAT (simulated sunlight)",21%
same,mortality at 224 g/ha,"[2]; Table 3, 224 g/ha, infested 0 days after treatment, read-out: Percent Mortality 0 DAT",100%
same,mortality at 560 g/ha,"[2]; Table 3, 560 g/ha, 3 day residual, greenhouse environment, read-out: Percent Mortality 3 DAT (greenhouse)",84%
same,mortality at 560 g/ha,"[2]; Table 3, 560 g/ha, 3 day residual, simulated sunlight environment, read-out: Percent Mortality 3 DAT (simulated sunlight)",49%
same,mortality at 560 g/ha,"[2]; Table 3, 560 g/ha, infested 0 days after treatment, read-out: Percent Mortality 0 DAT",100%
same,mortality at 1120 g/ha,"[2]; Table 3, 1120 g/ha, 3 day residual, greenhouse environment, read-out: Percent Mortality 3 DAT (greenhouse)",99%
same,mortality at 1120 g/ha,"[2]; Table 3, 1120 g/ha, 3 day residual, simulated sunlight environment, read-out: Percent Mortality 3 DAT (simulated sunlight)",95%
same,mortality at 1120 g/ha,"[2]; Table 3, 1120 g/ha, infested 0 days after treatment, read-out: Percent Mortality 0 DAT",100%
"Cc1nnn(C2C[N+]3([O-])CCC2C3)n1 (stereo not shown) [Compound 402, N-Oxide of 2-(4-azabicyclo[2.2.1]heptyl-2-yl)-5-methyl-1,2,3,4-tetrazole]","Percent Mortality at Day After treatment (DAT), 1 DAT",[1]; [9],A (A is 80%-100% mortality when compared to the control)
same,"Percent Mortality at Day After treatment (DAT), 2 DAT",[1]; [10],A (A is 80%-100% mortality when compared to the control)
same,"Percent Mortality at Day After treatment (DAT), 3 DAT",[1]; [11],A (A is 80%-100% mortality when compared to the control)
same,"Percent Mortality at Day After treatment (DAT), 6 DAT",[1]; [12],A (A is 80%-100% mortality when compared to the control)
same,"Percent Mortality at Day After treatment (DAT), 7 DAT","[1]; 500 ppm applied to opposite leaf side, 7 DAT",A (A is 80%-100% mortality when compared to the control)
same,Percent Mortality 3 DAT (simulated sunlight),[2]; [13],50%
same,Percent Mortality 5 DAT (greenhouse),[2]; [14],45%
same,Percent Mortality 0 DAT,[2]; [15],50%
same,Percent Mortality 3 DAT (simulated sunlight),[2]; [16],84%
same,Percent Mortality 5 DAT (greenhouse),[2]; [17],70%
same,Percent Mortality 0 DAT,[2]; [18],84%
same,Percent Mortality 3 DAT (simulated sunlight),[2]; [19],92%
same,Percent Mortality 5 DAT (greenhouse),[2]; [20],84%
same,Percent Mortality 0 DAT,[2]; [21],92%
"CN1CCC=C(c2cnsn2)C1 [A, 3-[1-methyl(1,2,5,6-tetrahydropyrid-3-yl)]-1,2,5-thiadiazole]",mortality at 500 ppm,"[1]; 24 h, 500 ppm applied to opposite leaf side, 1 DAT, read-out: Percent Mortality at Day After treatment (DAT), 1 DAT",< 50%
same,mortality at 500 ppm,"[1]; 48 h, 500 ppm applied to opposite leaf side, 2 DAT, read-out: Percent Mortality at Day After treatment (DAT), 2 DAT",< 50%
same,mortality at 500 ppm,"[1]; 72 h, 500 ppm applied to opposite leaf side, 3 DAT, read-out: Percent Mortality at Day After treatment (DAT), 3 DAT",< 50%
same,mortality at 500 ppm,"[1]; 96 h, 500 ppm applied to opposite leaf side, 4 DAT, read-out: Percent Mortality at Day After treatment (DAT), 4 DAT",< 50%
same,mortality at 500 ppm,"[1]; 144 h, 500 ppm applied to opposite leaf side, 6 DAT, read-out: Percent Mortality at Day After treatment (DAT), 6 DAT",< 50%
"Cc1nnn(C2CN3CCC2CC3)n1 (stereo not shown) [E, 5-methyl-2-quinuclidin-3-yl-1,2,3,4-tetraazole]",mortality at 500 ppm,[1]; [3],< 50%
same,mortality at 500 ppm,[1]; [4],< 50%
same,mortality at 500 ppm,[1]; [5],< 50%
same,mortality at 500 ppm,[1]; [6],< 50%
same,mortality at 500 ppm,[1]; [7],< 50%
"CCc1noc(C2C[N+]3([O-])CCC2C3)n1 (stereo not shown) [Compound 397, N-Oxide of 5-(4-azabicyclo[2.2.1]hept-2-yl)-3-ethyl-1,2,4-oxadiazole]","Percent Mortality at Day After treatment (DAT), 1 DAT",[1]; [9],SA (SA is 50%-80% mortality when compared to the control)
same,"Percent Mortality at Day After treatment (DAT), 3 DAT",[1]; [11],SA (SA is 50%-80% mortality when compared to the control)
same,"Percent Mortality at Day After treatment (DAT), 4 DAT","[1]; 500 ppm applied to opposite leaf side, 4 DAT",SA (SA is 50%-80% mortality when compared to the control)
same,"Percent Mortality at Day After treatment (DAT), 5 DAT",[1]; [22],SA (SA is 50%-80% mortality when compared to the control)
same,"Percent Mortality at Day After treatment (DAT), 6 DAT",[1]; [12],SA (SA is 50%-80% mortality when compared to the control)
"Cc1noc(C2C[N+]3([O-])CCC2C3)n1 (stereo not shown) [Compound 396, N-Oxide of 5-(4-azabicyclo[2.2.1]hept-2-yl)-3-methyl-1,2,4-oxadiazole]","Percent Mortality at Day After treatment (DAT), 2 DAT",[1]; [10],A (A is 80%-100% mortality when compared to the control)
same,"Percent Mortality at Day After treatment (DAT), 3 DAT",[1]; [11],A (A is 80%-100% mortality when compared to the control)
same,"Percent Mortality at Day After treatment (DAT), 5 DAT",[1]; [22],A (A is 80%-100% mortality when compared to the control)
same,"Percent Mortality at Day After treatment (DAT), 6 DAT",[1]; [12],A (A is 80%-100% mortality when compared to the control)
same,mortality throughout the seven-day test period,"[1]; 500 ppm, whole 7-day period",100%
same,Percent Mortality 3 DAT (greenhouse),"[2]; Table 3, 224 g/ha, 3 day residual, greenhouse environment",98%
same,Percent Mortality 3 DAT (simulated sunlight),"[2]; Table 3, 224 g/ha, 3 day residual, simulated sunlight environment",99%
same,Percent Mortality 0 DAT,"[2]; Table 3, 224 g/ha, infested 0 days after treatment",100%
same,Percent Mortality 3 DAT (greenhouse),"[2]; Table 3, 560 g/ha, 3 day residual, greenhouse environment",100%
same,Percent Mortality 3 DAT (simulated sunlight),"[2]; Table 3, 560 g/ha, 3 day residual, simulated sunlight environment",100%
same,Percent Mortality 0 DAT,"[2]; Table 3, 560 g/ha, infested 0 days after treatment",100%
same,Percent Mortality 3 DAT (greenhouse),"[2]; Table 3, 1120 g/ha, 3 day residual, greenhouse environment",100%
same,Percent Mortality 3 DAT (simulated sunlight),"[2]; Table 3, 1120 g/ha, 3 day residual, simulated sunlight environment",100%
same,Percent Mortality 0 DAT,"[2]; Table 3, 1120 g/ha, infested 0 days after treatment",100%
same,Percent Mortality 3 DAT (simulated sunlight),[2]; [13],58%
same,Percent Mortality 5 DAT (greenhouse),[2]; [14],64%
same,Percent Mortality 0 DAT,[2]; [15],100%
same,Percent Mortality 3 DAT (simulated sunlight),[2]; [16],70%
same,Percent Mortality 5 DAT (greenhouse),[2]; [17],86%
same,Percent Mortality 0 DAT,[2]; [18],100%
same,Percent Mortality 3 DAT (simulated sunlight),[2]; [19],98%
same,Percent Mortality 5 DAT (greenhouse),[2]; [20],93%
same,Percent Mortality 0 DAT,[2]; [21],100%
"Cc1nnn([C@H]2CN3CC[C@H]2C3)n1 [D, 2-(4-azabicyclo[2.2.1]heptyl-2-yl)-5-methyl-1,2,3,4-tetrazole]",mortality at 500 ppm,[1]; [7],50 to 80%
same,mortality at 500 ppm,[1]; [8],50 to 80%
"CCc1noc(C2CN3CCC2C3)n1 (stereo not shown) [C, 5-(4-azabicyclo[2.2.1]hept-2-yl)-3-ethyl-1,2,4-oxadiazole]",mortality at 500 ppm,[1]; [3],< 50%
same,mortality at 500 ppm,[1]; [4],< 50%
same,mortality at 500 ppm,[1]; [5],< 50%
same,mortality at 500 ppm,[1]; [6],< 50%
same,mortality at 500 ppm,[1]; [7],< 50%
